In one test the test system is Hep3B liver cancer cells. As to the kind of experiment: MTT cell viability assay. Particulars: read-out: IC50 values (μM), cell viability. A general note: Tetrazolium dyes change colour on reduction, which living cells bring about.
The subject of test [1] is HCT-116 colorectal cancer cells. The test can be described thus: MTT cell viability assay. Particulars: read-out: IC50 values (μM), cell viability.
Experimental: (§2) Twenty-five μl of 3-(4,5-Dimethylthiazolyl)-2,5-diphenyltetrazolium bromide (MTT, Sigma) was added to each sample and incubated for 3.5 hours. After this, 100 μl of N, N-dimethylformamide (Sigma) solubilization solution was added to each well. […] Half-Maximal inhibitory concentrations (IC50) were determined using Sigma Plot 9.0 software (Systat Software Inc., San Jose, CA).
Test [2] deals with U266 multiple myeloma cells. The test can be described thus: MTT cell viability assay. Particulars: read-out: IC50 values (μM), cell viability.
Experimental: as §2
In test [3] the test system is SNU-398 liver cancer cells. As to the kind of experiment: MTT cell viability assay. The conditions noted are these: read-out: IC50 values (μM), cell viability.
Experimental: as §2
For test [4], the system named is SW480 colorectal cancer cells. The test can be described thus: MTT cell viability assay. The conditions noted are these: read-out: IC50 values (μM), cell viability.
Experimental: as §2
Test [5] deals with SNU-449 liver cancer cells. As to the kind of experiment: MTT cell viability assay. The conditions noted are these: read-out: IC50 values (μM), cell viability.
Experimental: as §2
The next test has as its system U251 glioblastoma cells. As to the kind of experiment: MTT cell viability assay. The conditions noted are these: read-out: IC50 values (μM), cell viability.
The next test concerns U87 glioblastoma cells. The test can be described thus: MTT cell viability assay. Particulars: read-out: IC50 values (μM), cell viability.
For test [6], the system named is STAT3 phosphorylation induced by IL-6 in MDA-MB-453 breast cancer cells. As to the kind of experiment: IL-6 induction of STAT3 phosphorylation. Particulars: MDA-MB-453, pretreatment 20 μM, IL-6 50 ng/mL 30 min. The format is cell-based, human. As for the experimental part: After stimulation with IL-6 (50 ng/mL, Sigma) or IFN-γ (50 ng/mL, Sigma) for 30 min, the cells were harvested and analyzed by western blot.

Test [7] relates to ARH77 multiple myeloma cells. As to the kind of experiment: MTT cell viability assay. The conditions noted are these: read-out: IC50 values (μM), cell viability.
Experimental: as §2
Test [8] deals with SNU-387 liver cancer cells. The test can be described thus: MTT cell viability assay. The conditions noted are these: read-out: IC50 values (μM), cell viability.
Experimental: as §2
Test [9] deals with P-STAT3(Y705) in HCT-116 cells. As to the kind of experiment: Western blot, HCT-116 cells. The format is cell-based, human. Particulars: HCT116, positive controls. As to the method: (§1) Membranes were analyzed with enhanced chemiluminescence Plus reagents (GE Healthcare) and scanned with a Storm PhosphorImager (Amersham Pharmacia Biotech Inc.).
On the technique in general: Immunoblotting shows a protein as a band on a membrane.

For test [10], the system named is Cleaved Caspase-3 in HCT-116 cells. As to the kind of experiment: Western blot, HCT-116 cells. Format: cell-based, human. The conditions noted are these: HCT116, positive controls. As to the method: as §1
The test system of test [11] is P-STAT3(Y705) in U266 cells. As to the kind of experiment: Western blot, U266 cells. The conditions noted are these: U266, positive controls. Format: cell-based, human. As for the experimental part:
as §1

The subject of test [12] is Cleaved Caspase-3 in U266 cells. The test can be described thus: Western blot, U266 cells. The format is cell-based, human. Particulars: U266, positive controls. As for the experimental part: as §1

Where two headings read alike, the source gives them in different places.

Broadly, the IC50 is the midpoint of a concentration-inhibition curve.

Experimental for Hep3B liver cancer cells: as §2
Experimental for U251 glioblastoma cells: as §2
Experimental for U87 glioblastoma cells: as §2

In the case of `COc1cc(/C=C/C(=O)CC(=O)/C=C/c2ccc(O)c(OC)c2)ccc1O` [Curcumin], the IC50 in the test with Hep3B liver cancer cells (Homo sapiens, Hep3B, 72 h) was determined as 68.1 µM; in test [1] (Homo sapiens, HCT-116, 72 h) it was 10.9 µM; in [2] (Homo sapiens, U-266, 72 h), 4.76 µM; in [3] (Homo sapiens, SNU-398, 72 h), 5.37 µM; in [4] (Homo sapiens, SW480, 72 h) it was 10.3 µM; in [5] (Homo sapiens, SNU-449, 72 h) it was 9.88 µM. Besides, the IC50 in the test with U251 glioblastoma cells (Homo sapiens, U-251, 72 h) turned out to be 7.1 µM; with U87 glioblastoma cells (Homo sapiens, 72 h) it was 6.91 µM; in [7] (Homo sapiens, ARH-77, 72 h) it was 10.1 µM; in test [8] (Homo sapiens, SNU-387, 72 h), 25.5 µM. Further, the “inhibition of the induction of STAT3 phosphorylation by IL-6” value in [6] is listed as “not”.

For `Cc1ccc(S(=O)(=O)OCC(=O)Nc2ccc(C(=O)O)c(O)c2)cc1` [S3I-201], the IC50 in the test with Hep3B liver cancer cells (Hep3B (L), MTT, 72 hours) was over 100 µM; in test [1] (HCT-116 (C), MTT, 72 hours), over 100 µM; in [2] (U266 (MM), MTT, 72 hours) it was 8.87 µM; in test [3] (SNU-398 (L), MTT, 72 hours), 16.2 µM; in test [4] (SW480 (C), MTT, 72 hours) it was over 100 µM; in test [5] (SNU-449 (L), MTT, 72 hours), over 100 µM. Moreover, the IC50 in the test on U251 glioblastoma cells (U251 (G), MTT, 72 hours) was 97.3 µM; with U87 glioblastoma cells (U87 (G), MTT, 72 hours), 55.1 µM; in test [7] (ARH77 (MM), MTT, 72 hours) it was 35.2 µM; in test [8] (SNU-387 (L), MTT, 72 hours) it was over 100 µM.

In the case of `C[C@H](NC(=O)/C(C#N)=C/c1cccc(Br)n1)c1ccccc1` [WP1066], the IC50 with Hep3B liver cancer cells (Homo sapiens, Hep3B, 72 h) stood at 10.2 µM; in [1] (Homo sapiens, HCT-116, 72 h), 1.51 µM; in test [2] (Homo sapiens, U-266, 72 h), 1.38 µM; in test [3] (Homo sapiens, SNU-398, 72 h) it was 4.88 µM; in test [4] (Homo sapiens, SW480, 72 h) it was 1.98 µM; in test [5] (Homo sapiens, SNU-449, 72 h), 3.85 µM. For the same compound, the IC50 stood at 5.04 µM in the test with U251 glioblastoma cells (Homo sapiens, U-251, 72 h); 5.78 µM in the test on U87 glioblastoma cells (Homo sapiens, 72 h); 3.43 µM in [7] (Homo sapiens, ARH-77, 72 h); 5.17 µM in test [8] (Homo sapiens, SNU-387, 72 h). Besides, the “effect on STAT3 phosphorylation (in words)” value in test [9] and in test [11] was “inhibit STAT3 phosphorylation” in each case. In addition, the “apoptosis indicated by cleavage of caspase-3 (in words)” value in test [10] and in test [12] was “induce apoptosis” throughout.

`O=[N+]([O-])c1ccc2c(c1)S(=O)(=O)C=C2` [Stattic]: the IC50 came to 17.8 µM with Hep3B liver cancer cells (Hep3B (L), MTT, 72 hours); 0.96 µM in test [1] (HCT-116 (C), MTT, 72 hours); 0.99 µM in [2] (U266 (MM), MTT, 72 hours); 3.23 µM in test [3] (SNU-398 (L), MTT, 72 hours); 0.43 µM in test [4] (SW480 (C), MTT, 72 hours); 2.5 µM in test [5] (SNU-449 (L), MTT, 72 hours). Moreover, the IC50 in the test on U251 glioblastoma cells (U251 (G), MTT, 72 hours) came to 0.84 µM; in the test on U87 glioblastoma cells (U87 (G), MTT, 72 hours), 0.73 µM; in [7] (ARH77 (MM), MTT, 72 hours), 2.57 µM; in test [8] (SNU-387 (L), MTT, 72 hours) it was 4.3 µM. The “effect on STAT3 phosphorylation (in words)” value in test [9] and in test [11] was “inhibit STAT3 phosphorylation” throughout. Also, the “apoptosis indicated by cleavage of caspase-3 (in words)” value in [10] and in test [12] was “induce apoptosis” each time.

For `N#C/C(=C/c1ccc(O)c(O)c1)C(=O)NCc1ccccc1` [AG490], the 50% inhibitory concentration (IC50) in the test with Hep3B liver cancer cells (Hep3B (L), MTT, 72 hours) is over 100 µM; in [1] (HCT-116 (C), MTT, 72 hours), 50.5 µM; in test [2] (U266 (MM), MTT, 72 hours), 9.5 µM; in [3] (SNU-398 (L), MTT, 72 hours), 24.3 µM; in test [4] (SW480 (C), MTT, 72 hours), 86.8 µM; in test [5] (SNU-449 (L), MTT, 72 hours), over 100 µM. Besides, the IC50 in the test on U251 glioblastoma cells (U251 (G), MTT, 72 hours) was 50.7 µM; in the test on U87 glioblastoma cells (U87 (G), MTT, 72 hours) it was over 100 µM; in test [7] (ARH77 (MM), MTT, 72 hours), 28.2 µM; in test [8] (SNU-387 (L), MTT, 72 hours), over 100 µM.

The values are drawn from paper PMC2936338 (Molecular Cancer, 2010).
